Experiment: Skin moisture after application of moisturizing compositions (Corneometer)
Type: in vivo
Conditions: applied to skin
Experimental: Glycerol monostearate (GMS) cream moisturizing compositions containing 2% glycerin (Sample 1), 1% sodium erythorbate (Sample 2), 1% δ-gluconolactone (Sample 3), or 2% of a biodegradation prevention mixture containing 75% (by weight) sodium benzoate and 25% (by weight) sodium erythorbate were tested as follows.
The GMS cream was prepared as follows. Polyoxyethylene glyceryl monostearate, glyceryl monostearate, cetearyl alcohol, and myristyl propionate were mixed and heated to 60° C. in a first container. In four separate containers, glycerin, sodium erythorbate, δ-gluconolactone, or the aforementioned biodegradation prevention mixture were mixed with sterile deionized water and heated to 60° C. The solution in the first container was poured into each container containing glycerin, sodium erythorbate, δ-gluconolactone, or the biodegradation prevention mixture to produce the desired concentrations, e.g., 2% glycerin (w/w) (Sample 1), 1% sodium erythorbate (w/w) (Sample 2), 1% δ-gluconolactone (w/w) (Sample 3), or 2% biodegradation prevention mixture (w/w) (Sample 4). The containers were maintained at 60° C. for 10 minutes, and then allowed to cool. The pH of the solution was adjusted to pH 7 with sodium hydroxide to yield the GMS cream.
The moisturizing compositions were applied once to skin and skin moisture measurements were taken over a 7 day period following administration. […]

SMILES	Skin moisturization compared with known moisturizers such as glycerin
O=C1O[C@H]([C@H](O)CO)C([O-])=C1O.[Na+] [sodium erythorbate]	moisturize skin more effectively than many known moisturizers
O=C1O[C@H](CO)[C@@H](O)[C@H](O)[C@H]1O [δ-gluconolactone]	moisturize skin more effectively than many known moisturizers
